Tested on: herpetic infection
Assay: Effectiveness of treating herpetic infection upon incorporation of isoleucine
Assay type: in vivo
Conditions: isoleucine incorporated into the composition
Description: The effectiveness of treating herpetic infection increases to a considerable extent upon incorporation of isoleucine into the composition, by 10-28% as compared to control. Isoleucine may be contained in the formulation of the preparation in an amount of 0.11-0.22 g per 100 ml of composition.

For `CC[C@H](C)[C@H](N)C(=O)O` [isoleucine], the “Increase of effectiveness of treating herpetic infection as compared to control” value was 10-28%.

Reference: patent US20080057113A1, “Pharmaceutical Anti-Herpetic Composition, Method for Producing a Dosage Form Based Thereon and Method for the Use Thereof” (priority 2003, published 2008)
